Results published in paper PMC8589421, “Impact of Type II LRRK2 inhibitors on signaling and mitophagy” (Biochemical Journal, 2021).
Where two headings read alike, the source gives them in different places.

Legend:
[1] = system: Rab10 pThr73, LRRK2 [G2019S]; assay: Rab10 Thr73 phospho-immunoblot in LRRK2[G2019S] knock-in MEFs; assay type: cell-based, mouse; conditions: LRRK2[G2019S] knock-in MEFs, 2 h, read-out: LRRK2 [G2019S] Rab10 pThr73 IC50
Experimental: (§1) Wild-type and homozygous LRRK2 [R1441C] (Jax, stock number: 009346), LRRK2[G2019S] Taconic, (model 13940) and LRRK2 [A2016T] (Jax, stock number: 021828)[7] knock-in MEF cells were isolated from littermate-matched mouse embryos on a C57BL/6J background at day E12.5 as described previously. MEFs were grown in Dulbecco's modified Eagle medium (DMEM GIBCO, #11960-085) containing 10% (by vol) fetal bovine serum (FBS), 2 mM L-glutamine, 100 U/ml penicillin, and […] streptomycin supplemented with non-essential amino acids and 1 mM sodium pyruvate. Human embryonic kidney 293 (HEK293) (#ATCC CRL-1573) and HeLa (#ATCC CCL-2) cells were purchased from American Tissue Culture Collection (ATCC) and cultured in DMEM containing 10% (by vol) FBS, 2 mM L-glutamine, 100 U/ml penicillin, and […] streptomycin. All cells were grown at 37°C, 5% (by vol) CO2 in a humidified atmosphere and regularly tested for mycoplasma contamination.
(§2) Inhibitors were dissolved in dimethyl sulfoxide (DMSO) (Sigma, #D2650). The inhibitors were diluted 1000× into cell medium. The equivalent volume of DMSO was added to the minus inhibitor controls. Experiments were performed in six-well plates, 10 cm dishes or 15 cm dishes depending on the amount of cell extract required.
(§3) Cells were lysed in an ice-cold lysis buffer containing 50 mM Tris–HCl, pH 7.4, 1% (by vol) Triton X-100, 10% (by vol) glycerol, 150 mM NaCl, 1 mM sodium orthovanadate, 50 mM NaF, 10 mM 2-glycerophosphate, 5 mM sodium pyrophosphate, 1 µg/ml microcystin-LR, and cOmplete EDTA-free protease inhibitor cocktail (Roche, #11836170001). Lysates were incubated on ice for 30 min and clarified by centrifugation at 20 800×g at 4°C for 20 min. Supernatants were quantified by Bradford assay (Bio-Rad Protein Assay Dye Reagent Concentrate #5000006) and samples prepared in 1× lithium dodecyl sulfate sample buffer final concentration (NuPage LDS Sample buffer 4× Invitrogen, #NP0008). When not deployed immediately, lysates were snap-frozen in liquid nitrogen and stored at −80°C until use. […]

[2] = system: Rab10 phosphorylation, LRRK2[A2016T]; assay: Rab10 Thr73 phospho-immunoblot in inhibitor resistant LRRK2[A2016T] knock-in MEFs; assay type: cell-based, mouse; conditions: 2 h, up to 3 µM
Experimental: as §1, §2, §3

SMILES: Cc1ccc(C(=O)Nc2ccc(CN3CCN(C)CC3)c(C(F)(F)F)c2)cc1C#Cc1cnc2[nH]ncc2c1 [GZD-824]
- IC50 [1]: 233 nM
- IC50 ([1]; Mus musculus): 233 nM
- effect of A2016T mutation on inhibition of Rab10 phosphorylation [2]: markedly blocked
